# Experimental data reported in patent EP4458804A1, “METHOD FOR PRODUCING AN OBJECT, PHENALEN-1-ONE COMPOUND AND USE THEREOF” (TriOptoTec GmbH, priority 2023, dated 2024).
# How the values were obtained:
# [1] = system: S. aureus; assay: Bactericidal effect after steam sterilisation (Beispiel 20), modified ISO 22196; assay type: cell-based; details: TPU Folie, Rezeptur 1, 1 mM F-24b; after Dampfsterilisation 121°C, 2 h
# Excerpt: (§1) Die Bestimmung der antimikrobiellen Aktivität erfolgte nach einer modifizierten Version der ISO 22196:2011-08 ("Messung von antibakterieller Aktivität auf Kunststoff- und anderen porenfreien Oberflächen", Ausgabedatum: 2011-08).
# (§2) Bei der Testdurchführung wurde ein dünner Flüssigkeitsfilm, in dem die Bakterien enthalten sind (1,25 x 10^4 /cm^2), direkt auf die Probenkörper (3 x 3 cm) aufgebracht. Direkt nach Beimpfung wurden von der Nullprobe die Bakterien von den Probenkörperoberflächen mittels Ultraschall und Vortexen abgelöst und die Keimzahl (KBE (engl. CFU), Kolonie-bildende Einheit) bestimmt (t0-Wert).
# (§3) Nach 4h wurden überlebende Bakterien von den Probenkörperoberflächen mittels Ultraschall und Vortexen abgelöst und die Keimzahl bestimmt (t4-Wert).
# (§4) Im Unterschied zu der in der ISO 22196:2011-08 beschreibenen Methode wurde das Inokulum nicht mit einer Folie abgedeckt und die Inkubationszeit wurde von 24 auf 4 Stunden reduziert. Weiterhin wurden die Probenkörper der Proben 3 und 4 mit Licht der Intensität 20mW/cm2 für 10min belichtet, um eine biozide Wirkung nach Bestrahlung mit elektromagnetischer Strahlung zu bestimmen.
# Weiterhin wurde die Belastbarkeit des Photokatalysators in der Folie mit zusätzlichen Tests wie Tempern bei 80°C und Dampfsterilisation bei 121°C untersucht.
# [2] = system: E.coli 10536; assay: Antibacterial activity of impregnated films, modified ISO 22196 with illumination (Beispiel 12); assay type: cell-based; details: TPU Folie, Rezeptur 1, 1 mM F-24b; Licht 20mW/cm2 für 10min; Gram-negativ
# Excerpt: as §1, §2, §3, §4
# (§5) Verwendet wurden TPU Folienstücke, die nach dem in Beispiel 4 beschriebenen Verfahren mit Rezeptur 1 behandelt wurden. Rezeptur 1 wurde hergestellt nach Beispiel 2. […] Der Test wurde in Anlehnung an ISO 22196 nach oben beschriebener Methode durchgeführt.
# [3] = system: S.aureus ATCC 6538; assay: Antibacterial activity of impregnated films, modified ISO 22196 with illumination (Beispiele 11-16, 25); assay type: cell-based
# Excerpt: as §1, §2, §3, §4, §5
# TPU-Folienstücke wurden ebenfalls nach dem in Beispiel 4 beschriebenen Verfahren mit verschiedenen Rezepturen behandelt, die gemäß Beispiel 2 hergestellt wurden. Die Farbstoffkonzentration in der Imprägnierlösung betrug jeweils 1 mM F-24b. Der Test wurde in Anlehnung an ISO 22196 nach oben beschriebener Methode durchgeführt.
# Die Farbstoffkonzentration in der Imprägnierlösung betrug jeweils 1 mM.
# Die Photokatalysator-Konzentration von F-24b wurde variiert.
# Es wurde ein Bakterientest in Anlehnung an ISO 22196 nach oben beschriebener Methode durchgeführt.
# [4] = Comparative examples 23-25: impregnation of unsuitable plastics or with a fluorescent dye, visual evaluation; assay type: physicochemical; details: 0,2 mm starke Polycarbonatfolien; 60 min Einwirkzeit
# Method: Die Farbstoffkonzentration in der Imprägnierlösung betrug jeweils 1 mM bei Phenalen-1-on- und Curcuminderivaten, 0,1 mM bei Prophycenderivaten.
# Es wurden 0,2 mm starke Polycarbonatfolien eingesetzt und mit Imprägnierlösungen enthaltend die Photokatalysatoren F-24b, F-64a oder F-73 behandelt.
# Es wurden TPU Folien eingesetzt und mit einer Imprägnierlösung enthaltend den Farbstoff 2-Chloro-6-(3-hydroxypropylamino)-1-phenalenon (CAS 113722-81-9) behandelt.
# [5] = system: verschiedene Virusstämme; assay: Antiviral activity of impregnated films following ISO 21702 with illumination (Beispiel 17); details: TPU film, Rezeptur 1, 1 mM, light 20mW/cm^2 for 83 min
# [6] = Leaching test A: screening immersion 24 h, UV-VIS of supernatant (Beispiel 10 A); assay type: physicochemical; design: Abs. nach Auswaschen: unit not given here; details: for Berechneter Verlust in %: Rezeptur 1 nach Beispiel 1; for Abs. nach Auswaschen: Rezeptur 1 nach Beispiel 1, supernatant
# Method: Um das Auswaschen der verschiedenen Farbstoffe in den Kunststofffolien zu beurteilen, wurde ein Immersionstest in deionisiertem Wasser mit einem pH-Wert von (6 ± 1) (oder gegebenenfalls anderen Lösungsmitteln) und einer Wassertemperatur von (22 ± 3) °C für 24 Stunden durchgeführt.
# Dazu wurde ein Folienstück definierter Größe (3 cm x 3 cm) imprägniert (nach Rezeptur 1, Beispiel 1) und anschließend für 24 Stunden in eine definierte Menge deionisiertem Wasser (12,0 mL) gegeben und durch eine Schüttelplatte in Bewegung gehalten. Nach der angegeben Immersionszeit wurde die Folie entnommen und der Überschuss im UV-VIS Spektrometer vermessen, um die ausgewaschene Menge an Farbstoff zu bestimmen. Die Menge wird durch die definierte Größe der Folie und definierte Flüssigkeitsmenge auf einen Quadratzentimeter zurückgerechnet.
# Dieser Immersionstest diente dazu, das Auswaschverhalten verschiedener Farbstoffe aus verschiedenen Kunststofffolien zu beurteilen. Weiter sollte er dabei helfen, verschiedene Farbstoffklassen oder verschiedene Farbstoffderivate einer Farbstoffklasse bezüglich dieser Charakteristik miteinander zu vergleichen.
# Die zugeschnittenen Folien werden in einem geeigneten Behälter vollständig mit dem Prüfmedium (typischerweise deionisiertes Wasser) bedeckt. Anschließend wird der Behälter zugedeckt und auf die Schüttelplatte aufgebracht. Bei geringer Geschwindigkeit der Platte wird für 24 Stunden gewartet. Nach der Immersion wurden 3 mL des Überstandes durch Absorptionsspektroskopie vermessen.
# Die Auswertung erfolgte über das Verhältnis der max. Absorptionswerte einer reinen Farbstofflösung definierter Konzentration und des vermessenen Überstandes. Die Ergebnisse sind in Tabelle 50 dargestellt. Tabelle 50: Auswaschverhalten verschiedener Photokatalysatoren nach Immersionstest A
# [7] = Incorporation of photocatalysts into TPU films versus process time, absorption spectroscopy against blank film (Beispiele 7a-9b); assay type: physicochemical; details: TPU Folie, Rezeptur 1; Beispiel 7b, Tabelle 41
# Method: Im nächsten Schritt wurde die Verwendbarkeit der verschiedene Photokatalysatorklassen, ausgewählt aus Phenalen-1-on-Derivaten, Curcumin-Derivaten und Porphycen-Derivaten, mit unterschiedlichen Eigenschaften - von neutral unpolar bis ionisch polar - auf Ihre Verwendbarkeit und Wirkung im Verfahren untersucht.
# Zur Beurteilung der optimalen Prozesszeit bei Einsatz der Photokatalysatoren, wurden TPU Folienstücke nach Beschreibung in Beispiel 4 zu je 1, 2, 5 und 10 min in den Imprägnierlösungen behandelt, gegebenenfalls auch 30 und 60 min bei undeutlichen Ergebnissen.
# Als Basisformulierung wurde Rezeptur 1 nach Beispiel 2 verwendet.
# Nach der angegebenen Prozesszeit wurden die Folie entnommen, mit Wasser gewaschen und für 1h bei 40°C getrocknet/abgelüftet.
# Die Folien wurden durch Absorptionsspektroskopie gegen ein Blank-Folienstück direkt vermessen, beim Maximum der Absorption des Photokatalysators. Dabei ergaben sich in Abhängigkeit der Prozesszeit folgende Werte, die in den Tabellen 40 bis
# [8] = medium 5% Neutralseife, plastic PVC
# [9] = medium 5% Neutralseife, plastic TPU
structure (smiles),measurement,setting,value
CC(C)(O)c1cc[n+](CC2=Cc3cccc4cccc(c34)C2=O)cc1 [F-24b],Log10 Reduktion Hauptprobe,[1],"1,5 ± 0,3 log10"
same,Log10 Reduktion Hauptprobe,[2],"4,8 ± 0,4 log10"
same,Log10 Reduktion Hauptprobe,"[3]; Beispiel 13, TPU film, Rezeptur 1 nach Beispiel 2, 1 mM in impregnation solution, light 20mW/cm2 10min","4,0 ± 0,3 log10"
same,Log10 Reduktion Hauptprobe,"[3]; Beispiel 13, TPU film, Rezeptur 2 nach Beispiel 2, 1 mM in impregnation solution, light 20mW/cm2 10min","1,8 ± 1,3 log10"
same,Log10 Reduktion Hauptprobe,"[3]; Beispiel 13, TPU film, Rezeptur 3 nach Beispiel 2, 1 mM in impregnation solution, light 20mW/cm2 10min","4,2 ± 0,8 log10"
same,Log10 Reduktion Hauptprobe,"[3]; Beispiel 13, TPU film, Rezeptur 8 nach Beispiel 3, 1 mM in impregnation solution, light 20mW/cm2 10min","3,5 ± 0,5 log10"
same,Log10 Reduktion Hauptprobe,"[3]; Beispiel 15, TPU film, Rezeptur 1, photocatalyst concentration 0,5 mM","2,5 ± 1,4 log10"
same,Log10 Reduktion Hauptprobe,"[3]; Beispiel 15, TPU film, Rezeptur 1, photocatalyst concentration 0,25 mM","2,8 ± 1,3 log10"
same,Log10 Reduktion Hauptprobe,"[3]; Beispiel 15, TPU film, Rezeptur 1, photocatalyst concentration 1 mM","3,5 ± 0,5 log10"
same,Log10 Reduktion Hauptprobe,"[3]; Beispiel 16, film material CPI (Polyimid), Rezeptur 1, 1 mM","3,0 ± 0,1 log10"
same,Log10 Reduktion Hauptprobe,"[3]; Beispiel 16, film material Nitril, Rezeptur 1, 1 mM","3,8 ± 0,3 log10"
same,Log10 Reduktion Hauptprobe,"[3]; Beispiel 16, film material PET-G, Rezeptur 1, 1 mM","4,0 ± 0,1 log10"
same,Log10 Reduktion Hauptprobe,"[3]; Beispiel 16, film material PVC, Rezeptur 1, 1 mM","3,9 ± 0,8 log10"
same,Log10 Reduktion Hauptprobe,"[3]; Beispiel 16, film material Silikon, Rezeptur 1, 1 mM","3,4 ± 0,1 log10"
same,Log10 Reduktion Hauptprobe,"[3]; Beispiel 16, film material Surlyn, Rezeptur 1, 1 mM","3,6 ± 0,5 log10"
same,Log10 Reduktion Hauptprobe,"[3]; Beispiel 16, film material TPU, Rezeptur 1, 1 mM","4,0 ± 0,3 log10"
same,Log10 Reduktion Hauptprobe,"[3]; TPU Folie, Rezeptur 1, 1 mM F-24b, Licht 20mW/cm2 für 10min, Gram-positiv","4,0 ± 0,3 log10"
same,Verfärbung,[4],keine Verfärbung
same,Log10 Reduktion Hauptprobe,[5]; Virus: Influenza A Virus (H1N1),"2,5 ± 0,5 log10"
same,Log10 Reduktion Hauptprobe,[5]; Virus: Modified Vaccinia Virus Ankara (MVA),"4,6 ± 0,6 log10"
same,Berechneter Verlust in %,[6]; [8],"3,8%"
same,Abs. nach Auswaschen,[6]; [8],"0,024"
same,Berechneter Verlust in %,[6]; [9],"10,7%"
same,Abs. nach Auswaschen,[6]; [9],"0,061"
same,Berechneter Verlust in %,"[6]; medium 70% IPA, plastic PVC","25,4%"
same,Abs. nach Auswaschen,"[6]; medium 70% IPA, plastic PVC","0,160"
same,Berechneter Verlust in %,"[6]; medium 70% IPA, plastic TPU","34,0%"
same,Abs. nach Auswaschen,"[6]; medium 70% IPA, plastic TPU","0,194"
same,Berechneter Verlust in %,"[6]; medium Wasser, plastic EVA","2,6%"
same,Abs. nach Auswaschen,"[6]; medium Wasser, plastic EVA","0,015"
same,Berechneter Verlust in %,"[6]; medium Wasser, plastic SEPS","4,7%"
same,Abs. nach Auswaschen,"[6]; medium Wasser, plastic SEPS","0,027"
same,Berechneter Verlust in %,"[6]; medium Wasser, plastic TPU","1,4%"
same,Abs. nach Auswaschen,"[6]; medium Wasser, plastic TPU","0,008"
same,Abs. 1 min,[7],"0,185"
same,Abs. 2 min,[7],"0,198"
same,Abs. 5 min,[7],"0,257"
same,Abs. 10 min,[7],"0,456"
